Earlier results on three compounds are cited in patent publication US7682636B2 (Metaproteomics, LLC, priority 2001, dated 2010).

SMILES strings stand for the structures.

The subject of series [1] is COX-2 over COX-1. The settings on record: reported, background.
In series [2] the test system is osteoarthritis of the knee in outpatients. The note with it: 1500 mg glucosamine sulfate per day versus 1200 mg ibuprofen.

As for `CC(=O)Oc1ccccc1C(=O)O` [aspirin], the COX-2 specificity in series [1] is reported as 0.6.

Consider `N[C@H]1C(O)O[C@H](CO)[C@@H](O)[C@@H]1O.O=S(=O)(O)O` (stereo partly drawn) [glucosamine, glucosamine sulfate], for which the pain scores result in series [2] is “difference between the two groups turned significantly in favor of glucosamine by week eight”.

As for `CC(C)Cc1ccc(C(C)C(=O)O)cc1` (stereo not drawn) [ibuprofen], the pain scores result in series [2] is listed as “pain scores decreased faster during the first two weeks in the ibuprofen patients than in the glucosamine-treated patients”.
